According to patent publication EP4574811A1, “CRYSTALLINE FORMS OF ELACESTRANT DIHYDROCHLORIDE” (SANDOZ AG, priority 2023, dated 2025):
Counter-ions that a name gives are not always drawn.

Experiment: Dissolution testing (aqueous solubility in water at 24°C)
Assay type: physicochemical
Conditions: dihydrochloride; for Aqueous solubility (concentration of clear solution): in water at 24 °C; for stability of the supersaturated solution: 51.9 mg/ml solution in water at 24 °C
Procedure: Aqueous solubility was determined dissolution experiments of Elacestrant dihydrochloride of the present invention in water at 24°C.

Row | Compound | Aqueous solubility (concentration of clear solution) | Aqueous solubility (concentration of clear solution) (listed as form A) | stability of the supersaturated solution | stability of the supersaturated solution (listed as form B)
1 | CCNCCc1ccc(CN(CC)c2cc(OC)ccc2[C@@H]2CCc3cc(O)ccc3C2)cc1 [Form A, (6R)-6-(2-(ethyl((4-(2-(ethylamino)ethyl)phenyl)-methylamino)-4-methoxyphenyl)-5,6,7,8-Tetrahydronaphthalen-2-oldihydrochloride] | 34,5 mg/ml | about 34.5 mg/ml | – | –
2 | CCNCCc1ccc(CN(CC)c2cc(OC)ccc2[C@@H]2CCc3cc(O)ccc3C2)cc1 [Form B, (6R)-6-(2-(ethyl((4-(2-(ethylamino)ethyl)phenyl)-methylamino)-4-methoxyphenyl)-5,6,7,8-Tetrahydronaphthalen-2-oldihydrochloride] | 51.9 mg/mL | – | instable | precipitation of Elacestrant dihydrochloride was occurred
3 | CCNCCc1ccc(CN(CC)c2cc(OC)ccc2[C@@H]2CCc3cc(O)ccc3C2)cc1 [Form 1, (6R)-6-(2-(ethyl((4-(2-(ethylamino)ethyl)phenyl)-methylamino)-4-methoxyphenyl)-5,6,7,8-Tetrahydronaphthalen-2-oldihydrochloride, reference compound] | less than 9,2 mg/ml | – | – | –
